Test [1] has as its system A2058 cells (BRAF mutant). In words: Apoptosis induction, caspase-3/7 activation (Incucyte live-cell imaging). The class given is cell-based. The note with it: T-A-32 in combination with trametinib, compared with either single agent treatment alone. The source says:
(§1) This study determined the ability of T-A-32 to enhance apoptosis in combination with osimertinib and trametinib in epidermal growth factor receptor (EGFR) mutant cell lines, and in combination with trametinib in Kirsten rat sarcoma viral oncogene (KRAS) or v raf murine sarcoma viral oncogene homolog B (BRAF) mutant cancer cell lines.
(§2) Three EGFR mutant cell lines (HCC4006, HCC827, and NCI-H1975), 5 KRAS mutant cell lines (A549, HCT116, Capan-2, Calu-1, and LoVo), and 1 BRAF mutant cell line (A2058) from multiple cancer indications were tested. The EGFR mutant cell lines were treated with single agent T-A-32, osimertinib (an EGFR inhibitor), or trametinib (a mitogen-activated protein kinase kinase [MEK] inhibitor); a dual combination of osimertinib and trametinib; or a triple combination of T-A-32, osimertinib, and trametinib in a 96-well plate format. The KRAS and BRAF mutant cell lines were treated with single agent T-A-32 or trametinib, or a dual combination of T-A-32 and trametinib in a 96-well plate format. Apoptosis induction was assessed by monitoring the activation of caspase-3/7 using a probe that generates bright green fluorescence upon DEVD peptide cleavage by activated caspase-3/7 as an early indicator of apoptosis every 2 hours for approximately 96 hours.
(§3) All cell lines were cultured in the recommended medium supplemented with 10% fetal bovine serum (FBS) at 37° C. in a humidified atmosphere containing 5% CO2 until they were at least 80% confluent as follows: • HCC4006, HCC827, and NCI-H1975 cells in Roswell Park Memorial Institute 1640+10% FBS • A2058 cells in Dulbecco's Modified Eagle Medium+10% FBS • HCT-116, Capan-2, and Calu-1 cells in McCoy's 5A+10% FBS • LoVo and A549 cells in F 12K+10% FBS
(§4) Cells were trypsinized, counted by an automated cell counter, and added to all wells of a 96-well plate at 3000 cells/well in 100 μL of the appropriate medium (1 plate for each cell line). The next day, compounds were diluted in DMSO to 1000× concentration. CELLEVENT Caspase-3/7 Green READYPROBE Reagent was prepared as per manufacturer's instructions by adding 1 drop of READYPROBE reagent into 1 mL of the appropriate medium. Compounds were diluted in the READYPROBE/medium mixture to 3× concentration and 50 μL were added to the cells. The plates were subsequently scanned every 2 hours using an Incucyte S3 Live-Cell Analysis System (Sartorius) for a total of 72 to 136 hours depending on the cell line. Plates were maintained at 37° C. in a humidified atmosphere containing 5% CO2 over the course of experiment.

Test [2] deals with Calu 1 cells (KRAS mutant). Described as above. It is filed as cell-based. The note with it: T-A-32 in combination with trametinib, compared with either single agent treatment alone.
From the text: as §1, §2, §3, §4

Test [3] has as its system Capan 2 cells (KRAS mutant). Described as above. The class given is cell-based. To be noted: T-A-32 in combination with trametinib, compared with either single agent treatment alone.
From the text: as §1, §2, §3, §4

Test [4] deals with HCC4006 cells (EGFR mutant NSCLC). Described as above. It is filed as cell-based. To be noted: triple combination of T-A-32, osimertinib, and trametinib, compared with the 3 single agent treatments and the dual combination of osimertinib and trametinib.
From the text: as §1, §2, §3, §4

Test [5] relates to HCC827 cells (EGFR mutant NSCLC). The description is as above. The class given is cell-based. To be noted: triple combination of T-A-32, osimertinib, and trametinib, compared with the 3 single agent treatments and the dual combination of osimertinib and trametinib.
From the text: as §1, §2, §3, §4

The subject of test [6] is A549 cells (KRAS mutant). The test is described as above. It is filed as cell-based, human. To be noted: T-A-32 in combination with trametinib, compared with either single agent treatment alone.
From the text: as §1, §2, §3, §4

Test [7] relates to HCT-116 cells (KRAS mutant). The test is described as above. It is filed as cell-based, human. To be noted: T-A-32 in combination with trametinib, compared with either single agent treatment alone.
From the text: as §1, §2, §3, §4

The subject of test [8] is LoVo cells (KRAS mutant). The description is as above. It is filed as cell-based, human. To be noted: T-A-32 in combination with trametinib, compared with either single agent treatment alone.
From the text: as §1, §2, §3, §4

Test [9] concerns NCI-H1975 cells (EGFR mutant NSCLC). The description is as above. It is filed as cell-based, human. The note with it: triple combination of T-A-32, osimertinib, and trametinib, compared with the 3 single agent treatments and the dual combination of osimertinib and trametinib.
From the text: as §1, §2, §3, §4

Test [10] concerns H1975 human non-small cell lung xenografts. In words: H1975 EGFR mutant lung cancer xenograft mouse model, tumor growth. It is filed as in vivo, female Nu/Nu mice. The note with it: for TGI (tumor growth inhibition): Day 18, vs vehicle control, p<0.001. The method, then:
This study determined the in vivo antitumor activity of T-A-32 administered in combination with osimertinib, an EGFR inhibitor and trametinib, a MEK inhibitor. This combination was tested in immunodeficient nude mice (Nu/Nu) bearing H1975 human non-small cell lung xenografts. H1975 was chosen as a xenograft model because H1975 harbors EGFR T790M/[…]L858R mutations. T970M is well known point mutation for osimertinib resistance and L858R is also known EGFR activation mutation.
Six- to 9-week-old female Nu/Nu mice were inoculated SC with 2×10^6 H1975 human non-small cell lung tumor cells in the right flank. Tumor growth was monitored twice per week using vernier calipers and the mean tumor volume (MTV) was calculated. When the MTV reached approximately 177 mm^3, animals were randomized into treatment groups (n=10/group) and dosed orally (PO) with either vehicle control (5% DMSO+95% PEG 400 (Vehicle 1)+0.5% hydroxypropyl methyl cellulose and 0.2% Tween-80 (Vehicle 2)+1% Tween 80 (Vehicle 3)) or T-A-32 at 75 mg/kg, osimertinib at 2.5 mg/kg, or trametinib at 1 mg/kg QD for 18 days.
Treatments started on Day 0, tumor size and body weight were measured twice per week, and the study was terminated when the vehicle control tumors reached a mean of approximately 1600 mm^3. Percent TGI was calculated on Day 18 when the control MTV reached the maximum allowable tumor volume. The mean maximum body weight change was determined for each group.

For test [11], the system named is HCT-116 human colorectal carcinoma xenografts. In words: HCT116 KRAS G13D mutant colorectal carcinoma xenograft mouse model, tumor growth. The note with it: T-A-32 PO 75 mg/kg QD in combination with trametinib 0.5 mg/kg; Day 14; vs vehicle control; p<0.0001. The class given is in vivo, female Nu/Nu mice. As to the method:
This study determined the in vivo antitumor activity of T-A-32 administered in combination with trametinib, a MEK inhibitor. This combination was tested in immunodeficient nude mice (Nu/Nu) bearing HCT-116 human colorectal carcinoma xenografts. HCT116 was chosen as a xenograft model because HCT116 harbors a the KRAS G13D mutation.
(§5) Six- to eight-week-old female Nu/Nu mice were inoculated subcutaneously with 1×10^6 HCT116 human colorectal carcinoma tumor cells in the right flank. Tumor growth was monitored twice per week using vernier calipers and the mean tumor volume (MTV) was calculated. When the MTV reached approximately 150-200 mm^3, approximately ten (10) days after cell inoculation, animals were randomized into treatment groups (n=10/group) and dosed orally (PO) with either vehicle control (5% DMSO+95% PEG 400 (Vehicle 1)+0.5% hydroxypropyl methyl cellulose and 0.2% Tween-80 (Vehicle 2)) or T-A-32 at 75 mg/kg, or trametinib at 0.5 mg/kg once per day (PO) for fourteen (14) days.
Tumor size and body weight were measured twice, and the study was terminated when the vehicle control tumors reached a mean of approximately 2000 mm^3. Percent TGI was calculated on Day 14 when the control MTV reached the maximum allowable tumor volume. The mean maximum body weight change was determined for each group.

In test [12] the test system is A549 human lung cancer xenografts. Put plainly: A549 KRAS G12S mutant lung cancer xenograft mouse model, tumor growth. To be noted: T-A-32 PO 75 mg/kg QD in combination with trametinib 1.0 mg/kg; Day 25; vs vehicle control; p<0.0001. The class given is in vivo, female Nu/Nu mice. The method, then:
This study determined the in vivo antitumor activity of T-A-32 administered in combination with trametinib, a MEK inhibitor. This combination was tested in immunodeficient nude mice (Nu/Nu) bearing A549 human lung cancer xenografts. A549 was chosen as a xenograft model because A549 cells harbor the KRAS G12S mutation.
as §5, with “with 5×10^6 A549” for “with 1×10^6 HCT116”, “human lung cancer” for “human colorectal carcinoma tumor”, “approximately eight (8)” for “approximately ten (10)”, “groups (n=8/group)” for “groups (n=10/group)”, “at 1.0” for “at 0.5”, “for twenty-five (25)” for “for fourteen (14)”
Tumor size and body weight were measured twice per week, and all treatments ended on day 25. Percent TGI was calculated on Day 25 when the control MTV reached the maximum allowable tumor volume. The mean maximum body weight change was determined for each group.

In test [13] the test system is LoVo human colorectal adenocarcinoma xenografts. Put plainly: LoVo KRAS G12D mutant colorectal adenocarcinoma xenograft mouse model, tumor growth. It is filed as in vivo, female Nu/Nu mice. The note with it: T-A-32 PO 75 mg/kg QD in combination with trametinib 1.0 mg/kg; Day 28; vs vehicle control; p<0.0001. As to the method:
This study determined the in vivo antitumor activity of T-A-32 administered in combination with trametinib, a MEK inhibitor. This combination was tested in immunodeficient nude mice (Nu/Nu) bearing LoVo human colorectal adenocarcinoma xenografts. LoVo was chosen as a xenograft model because LoVo cells harbor the KRAS G12D mutation.
as §5, with “with 5×10^6 LoVo” for “with 1×10^6 HCT116”, “colorectal adenocarcinoma” for “colorectal carcinoma tumor”, “approximately eight (8)” for “approximately ten (10)”, “at 1.0” for “at 0.5”, “for twenty-eight (28)” for “for fourteen (14)”
Tumor size and body weight were measured twice per week, and all treatments ended on day 28. Percent TGI was calculated on Day 28 when the control MTV reached the maximum allowable tumor volume. The mean maximum body weight change was determined for each group.

In the case of `CNS(=O)(=O)c1ccc(NCc2ccc(C(F)(F)F)cc2)c(-c2cn(C)cn2)c1` [T-A-32, N-methyl-3-(1-methyl-1H-imidazol-4-yl)-4-((4-(trifluoromethyl)benzyl)amino)benzenesulfonamide], the “apoptosis (caspase-3/7 activation)” value in test [1], in test [2], in [3], in test [4], in test [5] and in [6] was “enhanced apoptosis” throughout. Besides, the “apoptosis (caspase-3/7 activation)” value in [7], in test [8] and in test [9] was “enhanced apoptosis” in each case. In addition, the “TGI (tumor growth inhibition)” value in [10] (T-A-32 PO 75 mg/kg QD in combination with osimertinib (2.5 mg/kg)) is 88%; in [10] (T-A-32 in combination with both trametinib and osimertinib, PO QD), 99%; in test [11] it was 78%; in test [12], 83%; in [13], 75%. Moreover, in test [10] (triple combination of T-A-32, osimertinib, and trametinib, H1975 xenograft), the tumor regression entry was “complete regressions”.

Turning to `CC(=O)Nc1cccc(-n2c(=O)n(C3CC3)c(=O)c3c(Nc4ccc(I)cc4F)n(C)c(=O)c(C)c32)c1` [trametinib, reference compound], the “TGI (tumor growth inhibition)” value in test [10] (trametinib 1 mg/kg in combination with osimertinib 2.5 mg/kg, PO QD) is given as 71%.

The record behind these values is patent US20240261288A1, “COMBINATION OF A 3-(IMIDAZOL-4-YL)-4-(AMINO)-BENZENES[…] INHIBITOR WITH AN EGFR INHIBITOR AND/OR MEK INHIBITOR FOR USE IN THE TREATMENT OF LUNG CANCER” (lkena Oncology, Inc., priority 2021, published 2024).
